Source: patent US20150005306A1 (priority 2013, published 2015)
“Also recorded” adds a separate entry of the source.

Tests used:
[1] = tested on: Alzheimer's disease transgenic mouse; assay: Y-maze behavior test (spontaneous alternation); type: in vivo; conditions: B6C3-Tg(APPswe, PSEN1dE9) mouse, 1 mg/kg of each drug orally every day, Y-maze once every week for 13 weeks
Procedure: To test the effects of a combination of EPPS and donepezil, a Y-maze behavior test for evaluating learning memory of an Alzheimer's disease transgenic mouse was performed.
10 months old B6C3-Tg(APPswe, PSEN1dE9)85Dbo/Mmjax (The Jackson Laboratory, the U.S.A.) was used as the Alzheimer's disease transgenic mouse, as an experimental animal. The experimental animal was divided into three groups, namely, a donepezil administered group, an EPPS administered group, and a combination of donepezil and EPPS administered group were orally administered with respective drugs everyday in the amounts shown in Table 1 below and the Y-maze test was performed once every week for 13 weeks. As a control group, a transgenic mouse that was not administered with a drug was used as a negative control group and a normal mouse that was not administered with a drug was used as a positive control group.
The Y-maze instrument includes a maze made of a black acrylic board [branches: width 6 cm, length 40 cm, and height 12 cm] having a Y-shape in which all corners were blocked and each branch was disposed at a uniform angle of 120°. […] Frequencies and sequences of the experimental animal moving into each branch were measured to evaluate spontaneous alternation (%). […]

[2] = tested on: Alzheimer's disease transgenic mouse; assay: Fear conditioning-contextual test; type: in vivo; conditions: 1 mg/kg of each drug, after the 13 weeks of Example 1
Text: (§1) To observe the effects of the combination of EPPS and donepezil, the experimental animal subjected to the Y-maze behavior test for 13 weeks in Example 1 was subjected to a fear conditioning test for testing fearful memory of space and sound.
(§2) The fear conditioning test was divided into a fear conditioning-contextual test that tests fearful memory of space and fear conditioning-cued test that tests fearful memory of sound.
(§3) The test included a pair of sound stimulation (CS(conditioned stimulus), 30 seconds, 85 dB, and 30 kHz) and electric shock (US(unconditioned stimulus), 1 second, and 0.5 mA), which was repeated twice. Each was performed with a term of 90 seconds and the mouse was taken out from the conditioning box 90 seconds after the last electric shock (US). The following tests were performed after 24 hours.
Contextual test: the experimental animal was maintained in the conditioning box and freeze response were measured without providing sound stimulation and electric shock, results of which were used as a scale of conditioned fearful reaction. The freeze reaction was defined as a motionless state, except for breathing.

[3] = tested on: Alzheimer's disease transgenic mouse; assay: Fear conditioning-cued test; type: in vivo; conditions: 1 mg/kg of each drug, after the 13 weeks of Example 1
Text: as §1, §2, §3
Cued test: To change the context after 24 hours of the contextual test, the mouse was put into a box other than the box used for the contextual test and was provided with a sound stimulation identical to the contextual test (electric shock was not provided) to measure freeze reactions. The results were used as a scale for fear response conditioned to the cues.

[4] = tested on: β-amyloid fibrils or oligomers; conditions: as disclosed in a research paper; cited from earlier work

SMILES	improvement in cognitive skills (normalized % alternation rate, FIG. 1) [1]	Average freeze response, contextual test [2]	Average freeze response, cued test [3]	effect on accumulation of β-amyloid fibrils or oligomers [4]
COc1cc2c(cc1OC)C(=O)C(CC1CCN(Cc3ccccc3)CC1)C2 (stereo not shown) [donepezil, reference compound]	initially showed a rapid improvement in cognitive skills, but the improvement reached peak at 5 weeks and decreased at 7 weeks; also recorded: rapid but short-term improvement in cognitive skills	16.602	58.9167	
O=S(=O)(O)CCCN1CCN(CCO)CC1 [EPPS, N-(2-hydroxyethyl)piperazine-N′(3-propanesulfonic acid)]	gradual improvement in the cognitive skills compared with that of the donepezil administered group; also recorded: reached the same level of cognitive skills as the donepezil administered group at 10 weeks; also recorded: long-term improvement in cognitive skills but a slower improvement compared with donepezil and a lower improvement compared with the combination of EPPS and donepezil	34.437	55.1042	inhibits the accumulation of β-amyloid fibrils or oligomers and decomposes the accumulated β-amyloid fibrils or oligomers
